The record followed here is article PMC9919727 (Molecules, 2023).

Read-outs that look alike come from different tables or passages of the source.

Data set [1] addresses Carbonic anhydrase II (bCA II) (Bos taurus, UniProt P00921). The experiment in a line: CA II inhibition assay (4-nitrophenyl acetate hydrolysis). It counts as biochemical, bovine. The note with it: for inhibition of the enzyme CA II (in words): under the conditions of the assay. How it is done:
For the CA II assay: Carbonic anhydrase II (bCA II, ≥3000 W-A units/mg from bovine erythrocytes) as well as 4-nitrophenyl acetate (4-NA) were purchased from Sigma.
The substrate (25 µL, [4-NA] = 0.75 mM, 0.50 mM, 0.25 mM, 0.15 mM) was added to start the enzymatic reaction. […] The relative inhibition was determined as the quotient of the slopes (compound divided by blank) of the linear ranges.

In data set [2] the test system is A2780 (ovarian carcinoma). The data set is described as follows: SRB cytotoxicity assay, A2780. The data set is classed as cell-based. The note with it: Homo sapiens, read-out: EC50 A2780. How it is done:
(§1) Expression of CA II and its involvement cancer has previously been established for A375 [82], HT29 [83] as well as for MCF-7 cells. Cell line A2780 and non-malignant fibroblasts (NIH 3T3) were employed for comparison.
(§2) NMR spectra were recorded using the Varian spectrometers (Darmstadt, Germany) DD2 and VNMRS (400 and 500 MHz, respectively). MS spectra were taken on a Advion expressionL CMS mass spectrometer (Ithaca, USA; positive ion polarity mode, solvent: methanol, solvent flow: 0.2 mL/min, spray voltage: 5.17 kV, source voltage: 77 V, APCI corona discharge: 4.2 μA, capillary temperature: 250 °C, capillary voltage: 180 V, sheath gas: N2). Thin-layer chromatography was performed on pre-coated silica gel plates supplied by Macherey-Nagel (Düren, Germany). IR spectra were recorded on a Spectrum 1000 FT-IR-spectrometer from Perkin Elmer (Rodgau, Germany). The UV/Vis-spectra were recorded on a Lambda 14 spectrometer from Perkin Elmer (Rodgau, Germany); optical rotations were measured using a JASCO-P2000 instrument (JASCO Germany GmbH, Pfungstadt, Germany) The melting points were determined using the Leica hot stage microscope Galen III (Leica Biosystems, Nussloch, Germany) and are uncorrected. The solvents were dried according to usual procedures. Microanalyses were performed with an Elementar Vario EL (CHNS) instrument (Elementar Analysensysteme GmbH, Elementar-Straße 1, D-63505 Langenselbold, Germany). All dry solvents were distilled over respective drying agents except for DMF which was distilled and stored under argon and molecular sieve. Reactions using air- or moisture-sensitive reagents were carried out under argon atmosphere in dried glassware. Triethylamine was stored over potassium hydroxide. Biological assays were performed as previously reported employing cell lines obtained from the Department of Oncology [Martin-Luther-University Halle Wittenberg; they were bought from ATCC: malignant: A 375, HT29, MCF7, and A2780; non-malignant: NIH 3T3]. Oleanolic and ursolic acid were obtained from Betulinines (Strbrna Skalice, Czech Republic) and used as received. Glycyrrhetinic acid was bought from Orgentis Chemicals GmbH (Gatersleben).
(§3) For the SRB assay: cells were seeded into 96-well plates on day zero at appropriate cell densities to prevent confluence of the cells during the period of the experiment. […] After 72 h of treatment, the supernatant media from the 96-well plates were discarded, then the cells were fixed with 10% trichloroacetic acid and allowed to rest at 4 °C. After 24 h of fixation, the cells were washed in a strip washer and then dyed with SRB solution (200 μL, 10 mM) for 20 min. Then the plates were washed four times with 1% acetic acid to remove the excess of the dye and allowed to air-dry overnight. Tris base solution (200 μL, 10 mM) was added to each well. The absorbance was measured with a 96-well plate reader from Tecan Spectra.
Background: In SRB staining, fixed cells bind dye roughly in proportion to their protein.

Data set [3] deals with NIH 3T3 (non-malignant fibroblasts). The data set is described as follows: SRB cytotoxicity assay, NIH 3T3. The data set is classed as cell-based. The note with it: Mus musculus, read-out: EC50 NIH 3T3. How it is done:
as §1, §2, §3

The subject of data set [4] is HT29 (colorectal adenocarcinoma). The experiment in a line: SRB cytotoxicity assay, HT29. It counts as cell-based. The note with it: Homo sapiens, read-out: EC50 HT29. How it is done: as §1, §2, §3
Data set [5] relates to MCF-7 (breast adenocarcinoma). The data set is described as follows: SRB cytotoxicity assay, MCF-7. The note with it: Homo sapiens, read-out: EC50 MCF-7. It counts as cell-based. How it is done: as §1, §2, §3
Data set [6] relates to A375 (epithelial melanoma). The experiment in a line: SRB cytotoxicity assay, A375. The note with it: Homo sapiens, read-out: EC50 A375. It counts as cell-based. How it is done:
as §1, §2
For the SRB assay: cells were seeded into 96-well plates on day zero at appropriate cell densities to prevent confluence of the cells during the period of the experiment. […] After 72 h of treatment, the supernatant media from the 96-well plates were discarded, then the cells were fixed with 10% trichloroacetic acid and allowed to rest at 4 °C. After 24 h of fixation, the cells were washed in a strip washer and then dyed with SRB solution (200 μL, 10 mM) for 20 min. […] The absorbance was measured with a 96-well plate reader from Tecan Spectra.

[7] abbreviates: A2780, SRB assay, after 72 h of treatment.
[8] abbreviates: NIH3T3, SRB assay, after 72 h of treatment, non-malignant fibroblasts.
[9] abbreviates: HT-29, SRB assay, after 72 h of treatment.
Where [10] appears, read: MCF7, SRB assay, after 72 h of treatment.
[11] abbreviates: at 10 µM concentration, read-out: Inhibition [%].
Setting [12] is: A-375, SRB assay, after 72 h of treatment.

Sequence of Carbonic anhydrase II (bCA II) (P00921 whole entry): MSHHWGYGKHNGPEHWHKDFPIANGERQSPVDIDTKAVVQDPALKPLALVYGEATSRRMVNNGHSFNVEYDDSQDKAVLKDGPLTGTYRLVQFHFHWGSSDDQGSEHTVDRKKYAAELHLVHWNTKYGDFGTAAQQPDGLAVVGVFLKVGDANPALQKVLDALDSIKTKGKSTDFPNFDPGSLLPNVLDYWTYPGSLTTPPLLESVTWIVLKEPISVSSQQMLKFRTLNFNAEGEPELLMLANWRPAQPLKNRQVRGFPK

In the case of `C=C(C)[C@@H]1CC[C@]2(CO)CC[C@]3(C)[C@H](CC[C@@H]4[C@@]5(C)CC[C@H](OC(C)=O)C(C)(C)[C@@H]5CC[C@]43C)[C@@H]12` [Compound 2, 3-O-Acetyl-betulin], the “inhibition rates (CA II)” value in data set [1] (conditions of the assay) is given as “less than 10%”.

On to `C=C(C)[C@@H]1CC[C@]2(COC(=O)CCC(=O)O)CC[C@]3(C)[C@H](CC[C@@H]4[C@@]5(C)CC[C@H](OC(C)=O)C(C)(C)[C@@H]5CC[C@]43C)[C@@H]12` [Compound 3, 4-{[(3β)-3-(Acetyloxy)lup-20(29)-en-28-yl]oxy}-4-oxobutanoic Acid], for which the melting point (in general, the temperature of the solid-liquid transition) fell in the range of 189 to 191 °C. For the same compound, the “inhibition rates (CA II)” value in data set [1] is “less than 10%”.

Take `C=C(C)[C@@H]1CC[C@]2(COC(=O)CCC(=O)Nc3nnc(S(N)(=O)=O)s3)CC[C@]3(C)[C@H](CC[C@@H]4[C@@]5(C)CC[C@H](OC(C)=O)C(C)(C)[C@@H]5CC[C@]43C)[C@@H]12` [Compound 6, (3β)-3-(Acetyloxy)lup-20(29)-en-28-yl 4-{[5-(aminosulfonyl)-1,3,4-thiadiazol-2-yl]amino}-4-oxobutanoate]: the EC50 (in general, the concentration that produces a half-maximal response) in data set [2] (A2780, 72 h) was determined as 9.3 ± 1.2 µM; in data set [3] (NIH3T3, 72 h), 9.5 ± 1 µM; in data set [4] (HT-29, 72 h) it was 10.2 ± 1.3 µM; in data set [5] (MCF7, 72 h), 8.9 ± 0.7 µM; in data set [6] (A-375, 72 h) it was 8.5 ± 0.7 µM. Also, the affinity in data set [1], expressed as Ki, was 0.129 ± 0.02 µM. In addition, testing at 10 µM in data set [1] gave an inhibition of 93 ± 0.1%. Also, the “mode of inhibition of CA II” value in data set [1] is reported as “competitive inhibitor”.

In turn, `CC(=O)O[C@H]1CC[C@]2(C)[C@H]3CC=C4[C@@H]5CC(C)(C)CC[C@]5(COC(=O)CCC(=O)Nc5nnc(S(N)(=O)=O)s5)CC[C@@]4(C)[C@]3(C)CC[C@H]2C1(C)C` [Compound 18, (3β) 3-(Acetyloxy)olean-12-en-28-yl-4-{[5-(aminosulfonyl)-1,3,4-thiadiazol-2-yl]amino}-4-oxobutanoate] had a melting point of 198 to 200 °C. Besides, the EC50 in data set [2] (setting [7]) amounted to 11.8 ± 1.4 µM. Besides, the EC50 in data set [3] (setting [8]) was determined as 14 ± 1.5 µM. Moreover, the concentration for a half-maximal effect (EC50) in data set [4] (setting [9]) was determined as 14.2 ± 1.4 µM. Further, the EC50 in data set [5] (setting [10]) was 10.6 ± 1.4 µM. Also, in data set [1] (setting [11]), the inhibition (in general, the percentage by which the read-out fell short of the control) at 10 µM was found to be 49.4 ± 0.1%. For the same compound, the EC50 in data set [6] (setting [12]) amounted to 10.1 ± 0.8 µM.

In turn, `CC(=O)O[C@H]1CC[C@]2(C)[C@H]3CC=C4[C@@H]5[C@@H](C)[C@H](C)CC[C@]5(COC(=O)CCC(=O)Nc5nnc(S(N)(=O)=O)s5)CC[C@@]4(C)[C@]3(C)CC[C@H]2C1(C)C` [Compound 19, (3β)-3-(Acetyloxy)urs-12-en-28-yl-4-{[5-(aminosulfonyl)-1,3,4-thiadiazol-2-yl]amino}4-oxobutanoate] gave a melting point of 190 to 192 °C. The concentration for a half-maximal effect (EC50) in data set [2] (setting [7]) was 12.5 ± 1.7 µM. For the same compound, the EC50 in data set [3] (setting [8]) was 14.8 ± 1.5 µM. The EC50 in data set [4] (setting [9]) amounted to 15 ± 0.6 µM. Moreover, in data set [5] (setting [10]), the EC50 stood at 12.4 ± 0.8 µM. In data set [1] (CA II, Dixon plot, read-out: Ki), the Ki (in general, a dissociation constant, usually derived from enzyme kinetics or from competition with a known ligand) was 0.91 ± 0.17 µM. Also, in data set [1] (setting [11]), the inhibition at 10 µM worked out at 70.8 ± 0.2%. For the same compound, in data set [6] (setting [12]), the EC50 amounted to 13.7 ± 1.1 µM.

With `CC(=O)O[C@H]1CC[C@]2(C)[C@H]3C(=O)C=C4[C@@H]5C[C@@](C)(COC(=O)CCC(=O)Nc6nnc(S(N)(=O)=O)s6)CC[C@]5(C)CC[C@@]4(C)[C@]3(C)CC[C@H]2C1(C)C` [Compound 20, (3β, 20β) 3-(Acetyloxy)-11-oxoolean-12-en-30-yl-4-{[5-(aminosulfonyl)-1,3,4-thiadiazol-2-yl]amino}-4-oxobutanoate], the melting point is 179 to 181 °C. Besides, in data set [2] (setting [7]), the EC50 is 9.8 ± 0.8 µM. Moreover, the EC50 in data set [3] (setting [8]) amounted to 11.9 ± 1.7 µM. Moreover, in data set [4] (setting [9]), the concentration giving a half-maximal response (EC50) came to 13 ± 1.3 µM. For the same compound, the EC50 in data set [5] (setting [10]) is 10.5 ± 1.2 µM. The inhibition at 10 µM in data set [1] (setting [11]) was 96.8 ± 0.2%. Also, the EC50 in data set [6] (setting [12]) turned out to be 9.2 ± 0.5 µM.

As for `COc1cccc2c1C(=O)c1c(O)c3c(c(O)c1C2=O)C[C@@](O)(C(=O)CO)C[C@@H]3O[C@H]1C[C@H](N)[C@H](O)[C@H](C)O1` [DX, doxorubicin, reference compound], the EC50 was determined as 0.1 ± 0.01 µM in data set [2] (setting [7]), 0.01 ± 0.001 µM in data set [3] (setting [8]), 0.25 ± 0.02 µM in data set [4] (setting [9]) and 0.1 ± 0.01 µM in data set [5] (setting [10]).

For `C=C(C)[C@@H]1CC[C@]2(CO)CC[C@]3(C)[C@H](CC[C@@H]4[C@@]5(C)CC[C@H](O)C(C)(C)[C@@H]5CC[C@]43C)[C@@H]12` [betulin, reference compound], the “inhibition of the enzyme CA II (in words)” value (“inhibition … (in words)” below) in data set [1] was “did not inhibit the enzyme”.

In the case of `C=C(C)[C@@H]1CC[C@]2(C(=O)O)CC[C@]3(C)[C@H](CC[C@@H]4[C@@]5(C)CC[C@H](O)C(C)(C)[C@@H]5CC[C@]43C)[C@@H]12` [betulinic acid, reference compound], the “inhibition … (in words)” value in data set [1] is given as “did not inhibit the enzyme”.

`CC1(C)[C@@H](O)CC[C@]2(C)[C@H]3C(=O)C=C4[C@@H]5C[C@@](C)(C(=O)O)CC[C@]5(C)CC[C@@]4(C)[C@]3(C)CC[C@@H]12` [glycyrrhetinic acid, reference compound]: in data set [1], the “inhibition … (in words)” value is reported as “did not inhibit the enzyme”.

In the case of `CC1(C)CC[C@]2(C(=O)O)CC[C@]3(C)C(=CC[C@@H]4[C@@]5(C)CC[C@H](O)C(C)(C)[C@@H]5CC[C@]43C)[C@@H]2C1` [oleanolic acid, reference compound], the “inhibition … (in words)” value in data set [1] is on record as “did not inhibit the enzyme”.

Turning to `C[C@H]1[C@H](C)CC[C@]2(C(=O)O)CC[C@]3(C)C(=CC[C@@H]4[C@@]5(C)CC[C@H](O)C(C)(C)[C@@H]5CC[C@]43C)[C@H]12` [ursolic acid, reference compound], the “inhibition … (in words)” value in data set [1] is “did not inhibit the enzyme”.
